Measurements published in patent US8138189B2, “Substituted benzene compounds as modulators of the glucocorticoid receptor” (Hoffman-La Roche Inc., priority 2009, dated 2012).

biological target: T1, full length human recombinant glucocorticoid receptor (Homo sapiens, UniProt P04150); assay: Glucocorticoid Receptor Binding Assay (fluorescence polarization competitor assay, Fluormone GS Far Red tracer)
T1 construct: partially purified full length human recombinant glucocorticoid receptor; purchased Panvera/Invitrogen PV4302
T1 sequence (P04150 1-777): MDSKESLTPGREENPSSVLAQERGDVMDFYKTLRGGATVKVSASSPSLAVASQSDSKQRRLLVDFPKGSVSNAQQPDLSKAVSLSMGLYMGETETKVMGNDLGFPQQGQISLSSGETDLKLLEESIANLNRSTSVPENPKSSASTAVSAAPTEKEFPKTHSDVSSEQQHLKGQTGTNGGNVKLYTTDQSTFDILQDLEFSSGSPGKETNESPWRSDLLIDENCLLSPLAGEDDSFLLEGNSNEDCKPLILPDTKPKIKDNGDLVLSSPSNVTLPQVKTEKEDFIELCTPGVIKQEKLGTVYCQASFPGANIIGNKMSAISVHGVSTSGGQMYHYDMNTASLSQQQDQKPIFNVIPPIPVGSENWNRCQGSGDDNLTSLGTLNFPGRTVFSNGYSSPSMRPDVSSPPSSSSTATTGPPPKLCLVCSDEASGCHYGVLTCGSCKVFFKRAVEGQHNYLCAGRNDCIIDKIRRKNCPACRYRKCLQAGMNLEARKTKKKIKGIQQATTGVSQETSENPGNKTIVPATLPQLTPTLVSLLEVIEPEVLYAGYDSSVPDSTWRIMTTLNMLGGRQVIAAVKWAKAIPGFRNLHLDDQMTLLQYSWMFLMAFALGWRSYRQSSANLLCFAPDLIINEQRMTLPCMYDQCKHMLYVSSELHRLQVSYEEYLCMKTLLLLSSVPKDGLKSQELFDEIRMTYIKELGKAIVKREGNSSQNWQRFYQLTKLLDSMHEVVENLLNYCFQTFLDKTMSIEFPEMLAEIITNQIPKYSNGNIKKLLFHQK
In short: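 Serially diluted compounds competed with the tight-binding far-red fluorescent ligand for recombinant full-length human glucocorticoid receptor plus GR-stabilizing peptide (screening buffer pH 7.4; 3 h, 22 °C, dark). Polarization (610-660 nm) gave IC50 via sigmoidal dose-response fits, and Ki was derived by Cheng-Prusoff from tracer concentration and Kd.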

Structure (SMILES)	Ki
C[C@H](c1ccc(Oc2ccc(C(=O)O)c(F)c2)c(Cl)c1Cl)[C@@](O)(c1ccc(=O)n(C)c1)C(F)(F)F (stereo in doubt) [Example 200, 4-{2,3-Dichloro-4-[3,3,3-trifluoro-2-hydroxy-1-methyl-2-(1-methyl-6-oxo-1,6-dihydro-pyridin-3-yl)-propyl]-phenoxy}-2-fluoro-benzoic acid]	2.3 nM
C[C@@H](c1cc(F)c(Oc2ccc(C(=O)O)c(F)c2)cc1Cl)[C@](O)(c1ccc(=O)n(C)c1)C(F)(F)F (stereo in doubt) [Example 202, 4-{5-Chloro-2-fluoro-4-[3,3,3-trifluoro-2-hydroxy-1-methyl-2-(1-methyl-6-oxo-1,6-dihydro-pyridin-3-yl)-propyl]-phenoxy}-2-fluoro-benzoic acid]	47.9 nM
COC(=O)c1ccc(Oc2ccc([C@H](C)[C@](O)(c3cc(C)c(=O)n(C)c3)C(F)(F)F)c(Cl)c2)cc1F (stereo in doubt) [Example 203, 4-{3-Chloro-4-[2-(1,5-dimethyl-6-oxo-1,6-dihydro-pyridin-3-yl)-3,3,3-trifluoro-2-hydroxy-1-methyl-propyl]-phenoxy}-2-fluoro-benzoic acid methyl ester]	0.8 nM
Cc1cc([C@@](O)([C@@H](C)c2ccc(Oc3cc(C(F)(F)F)c(C(=O)O)cn3)cc2Cl)C(F)(F)F)cn(C)c1=O (stereo in doubt) [Example 206, 6-{3-Chloro-4-[2-(1,5-dimethyl-6-oxo-1,6-dihydro-pyridin-3-yl)-3,3,3-trifluoro-2-hydroxy-1-methyl-propyl]-phenoxy}-4-trifluoromethyl-nicotinic acid]	0.7 nM
COC(=O)c1ccc(Oc2ccc([C@H](C)[C@](O)(c3cc(C)c(=O)n(C)c3)C(F)(F)F)c(Cl)c2)cc1Cl (stereo in doubt) [Example 207, 2-Chloro-4-{3-chloro-4-[2-(1,5-dimethyl-6-oxo-1,6-dihydro-pyridin-3-yl)-3,3,3-trifluoro-2-hydroxy-1-methyl-propyl]-phenoxy}-benzoic acid methyl ester]	0.9 nM
Cc1cc([C@@](O)([C@@H](C)c2ccc(Oc3ccc(C(=O)O)c(C(F)(F)F)n3)cc2Cl)C(F)(F)F)cn(C)c1=O (stereo in doubt) [Example 209, 6-{3-Chloro-4-[2-(1,5-dimethyl-6-oxo-1,6-dihydro-pyridin-3-yl)-3,3,3-trifluoro-2-hydroxy-1-methyl-propyl]-phenoxy}-2-trifluoromethyl-nicotinic acid]	1.4 nM
Cc1cc([C@@](O)([C@@H](C)c2ccc(Oc3ccc(Cl)c(C(=O)O)c3)cc2Cl)C(F)(F)F)cn(C)c1=O (stereo in doubt) [Example 211, 2-Chloro-5-{3-chloro-4-[2-(1,5-dimethyl-6-oxo-1,6-dihydro-pyridin-3-yl)-3,3,3-trifluoro-2-hydroxy-1-methyl-propyl]-phenoxy}-benzoic acid]	0.7 nM
CCOC(=O)c1cc(Oc2ccc([C@H](C)[C@](O)(c3cc(C)c(=O)n(C)c3)C(F)(F)F)c(Cl)c2)ccc1F (stereo in doubt) [Example 212, 5-{3-Chloro-4-[2-(1,5-dimethyl-6-oxo-1,6-dihydro-pyridin-3-yl)-3,3,3-trifluoro-2-hydroxy-1-methyl-propyl]-phenoxy}-2-fluoro-benzoic acid ethyl ester]	1.9 nM
Cc1cc([C@@](O)([C@@H](C)c2ccc(Oc3ccc(C(=O)O)c(C(F)(F)F)c3)cc2Cl)C(F)(F)F)cn(C)c1=O (stereo in doubt) [Example 214, 4-{3-Chloro-4-[2-(1,5-dimethyl-6-oxo-1,6-dihydro-pyridin-3-yl)-3,3,3-trifluoro-2-hydroxy-1-methyl-propyl]-phenoxy}-2-trifluoromethyl-benzoic acid]	0.5 nM
C[C@H](c1ccc(Oc2ccc(C(=O)O)c(C(F)(F)F)c2)cc1Cl)[C@@](O)(c1ccc(=O)n(C)c1)C(F)(F)F (stereo in doubt) [Example 220, 4-{3-Chloro-4-[3,3,3-trifluoro-2-hydroxy-1-methyl-2-(1-methyl-6-oxo-1,6-dihydro-pyridin-3-yl)-propyl]-phenoxy}-2-trifluoromethyl-benzoic acid]	4 nM
C[C@@H](c1ccc(Oc2ccc(C(=O)O)c(Cl)c2)cc1Cl)[C@](O)(c1cc(Cl)c(=O)n(C)c1)C(F)(F)F (stereo in doubt) [Example 222, 2-Chloro-4-{3-chloro-4-[2-(5-chloro-1-methyl-6-oxo-1,6-dihydro-pyridin-3-yl)-3,3,3-trifluoro-2-hydroxy-1-methyl-propyl]-phenoxy}-benzoic acid]	0.6 nM
COC(=O)c1cnc(Oc2ccc([C@H](C)[C@](O)(c3cc(Cl)c(=O)n(C)c3)C(F)(F)F)c(Cl)c2)cc1C(F)(F)F (stereo in doubt) [Example 223, 6-{3-Chloro-4-[2-(5-chloro-1-methyl-6-oxo-1,6-dihydro-pyridin-3-yl)-3,3,3-trifluoro-2-hydroxy-1-methyl-propyl]-phenoxy}-4-trifluoromethyl-nicotinic acid methyl ester]	4.7 nM
C[C@@H](c1ccc(Oc2cc(C(F)(F)F)c(C(=O)O)cn2)cc1Cl)[C@](O)(c1cc(Cl)c(=O)n(C)c1)C(F)(F)F (stereo in doubt) [Example 224, 6-{3-Chloro-4-[2-(5-chloro-1-methyl-6-oxo-1,6-dihydro-pyridin-3-yl)-3,3,3-trifluoro-2-hydroxy-1-methyl-propyl]-phenoxy}-4-trifluoromethyl-nicotinic acid]	3.8 nM
C[C@H](c1ccc(-c2ccc(C(=O)O)c(F)c2)cc1Cl)[C@@](O)(c1cnc2ccccc2c1)C(F)(F)F (stereo in doubt) [Example 225, 3′-Chloro-3-fluoro-4′-(3,3,3-trifluoro-2-hydroxy-1-methyl-2-quinolin-3-yl-propyl)-biphenyl-4-carboxylic acid]	7.1 nM
C[C@H](c1ccc(Oc2ccc(C(=O)O)c(Cl)c2)cc1Cl)[C@@](O)(c1ccc2nccnc2c1)C(F)(F)F (stereo in doubt) [Example 228, 2-Chloro-4-[3-chloro-4-(3,3,3-trifluoro-2-hydroxy-1-methyl-2-quinoxalin-6-yl-propyl)-phenoxy]-benzoic acid]	64.5 nM
C[C@H](c1ccc(-c2ccc(C(=O)O)c(F)c2)cc1Cl)[C@@](O)(c1ccc(C#N)n1C)C(F)(F)F (stereo in doubt) [Example 230, 3′-Chloro-4′-[2-(5-cyano-1-methyl-1H-pyrrol-2-yl)-3,3,3-trifluoro-2-hydroxy-1-methyl-propyl]-3-fluoro-biphenyl-4-carboxylic acid]	24.9 nM
C[C@H](c1ccc(Oc2ccc(C(=O)O)c(Cl)c2)cc1Cl)[C@@](O)(c1ccc(C#N)n1C)C(F)(F)F (stereo in doubt) [Example 232, 2-Chloro-4-{3-chloro-4-[2-(5-cyano-1-methyl-1H-pyrrol-2-yl)-3,3,3-trifluoro-2-hydroxy-1-methyl-propyl]-phenoxy}-benzoic acid]	14.6 nM
C[C@H](c1ccc(Oc2ncc(C(=O)O)cc2Cl)cc1Cl)[C@@](O)(c1ccc(C#N)n1C)C(F)(F)F (stereo in doubt) [Example 233, 5-Chloro-6-{3-chloro-4-[2-(5-cyano-1-methyl-1H-pyrrol-2-yl)-3,3,3-trifluoro-2-hydroxy-1-methyl-propyl]-phenoxy}-nicotinic acid]	3.9 nM
Cc1cc([C@](O)([C@H](C)c2ccc(Oc3ncc(C(=O)O)cc3Cl)cc2Cl)C(F)(F)F)sc1C#N (stereo in doubt) [Example 234, 5-Chloro-6-{3-chloro-4-[2-(5-cyano-4-methyl-thiophen-2-yl)-3,3,3-trifluoro-2-hydroxy-1-methyl-propyl]-phenoxy}-nicotinic acid]	1.3 nM
C[C@H](c1ccc(Oc2ccc(C(=O)O)cn2)cc1Cl)[C@@](O)(c1ccc(C#N)n1C)C(F)(F)F (stereo in doubt) [Example 236, 6-{3-Chloro-4-[2-(5-cyano-1-methyl-1H-pyrrol-2-yl)-3,3,3-trifluoro-2-hydroxy-1-methyl-propyl]-phenoxy}-nicotinic acid]	22.3 nM
C[C@H](c1ccc(Oc2cnc(C(=O)O)cn2)c(Cl)c1Cl)[C@@](O)(c1ccc(=O)n(C)c1)C(F)(F)F (stereo in doubt) [Example 238, 5-{2,3-Dichloro-4-[3,3,3-trifluoro-2-hydroxy-1-methyl-2-(1-methyl-6-oxo-1,6-dihydro-pyridin-3-yl)-propyl]-phenoxy}-pyrazine-2-carboxylic acid]	112 nM
C[C@@H](c1ccc(OC(C)(C)C(=O)O)c(Cl)c1Cl)[C@](O)(c1ccc(=O)n(C)c1)C(F)(F)F (stereo in doubt) [Example 240, 2-{2,3-Dichloro-4-[3,3,3-trifluoro-2-hydroxy-1-methyl-2-(1-methyl-6-oxo-1,6-dihydro-pyridin-3-yl)-propyl]-phenoxy}-2-methyl-propionic acid]	82.2 nM
